{
  "source": "patent US12129237B2",
  "about": "“Substituted diaminocarboxamide and diaminocarbonitrile pyrimidines, compositions thereof, and methods of treatment therewith” (SIGNAL PHARMACEUTICALS, LLC, priority 2011, dated 2024)",
  "note": "pIC50: −log10 of the molar value.",
  "data": [
    {"target": "T1, JNK1 (Homo sapiens, UniProt P45983)", "T1 construct": "purchased Carna Biosciences", "T1 sequence (P45983 whole entry)": "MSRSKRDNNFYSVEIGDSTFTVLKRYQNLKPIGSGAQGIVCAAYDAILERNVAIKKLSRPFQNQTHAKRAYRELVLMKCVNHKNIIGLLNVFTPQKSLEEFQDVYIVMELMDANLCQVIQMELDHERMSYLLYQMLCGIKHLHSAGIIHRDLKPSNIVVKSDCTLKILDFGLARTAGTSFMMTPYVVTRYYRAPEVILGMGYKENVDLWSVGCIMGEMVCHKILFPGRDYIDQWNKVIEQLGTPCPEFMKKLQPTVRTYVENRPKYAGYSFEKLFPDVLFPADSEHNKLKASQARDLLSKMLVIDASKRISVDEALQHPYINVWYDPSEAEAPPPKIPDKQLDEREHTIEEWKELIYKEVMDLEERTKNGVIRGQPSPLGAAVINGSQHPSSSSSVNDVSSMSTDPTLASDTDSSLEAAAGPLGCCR", "assay": "JNK1 biochemical assays (one or more of: time resolved fluorescence, Z'-LYTE Cascade, radioactive)", "conditions": "Table 2; JNK1 IC50 activity level; read-out: Act. Level", "values": [
      {"molecule": "COc1ccc(Nc2ncc(C(N)=O)c(Nc3ccccc3)n2)cc1F", "note": "[Example B-27, 2-(3-fluoro-4-methoxyphenylamino)-4-(phenylamino)pyrimidine-5-carboxamide]", "pIC50": "> 6.70"},
      {"molecule": "N#Cc1cnc(NC2CCCCC2)nc1Nc1ccccc1", "note": "[Example B-86, 2-(cyclohexylamino)-4-(phenylamino)pyrimidine-5-carbonitrile]", "pIC50": "5.00 to 6.00"}
    ]},
    {"target": "T1, JNK1", "assay": "JNK1 biochemical assays (one or more of: time resolved fluorescence, Z'-LYTE Cascade, radioactive)", "conditions": "Table 3; JNK1 IC50 activity level; read-out: Act. Level", "values": [
      {"molecule": "CN(C)C(=O)C(C)(C)C1CCC(Nc2ncc(C#N)c(N[C@@H]3CCC[C@H](O)C3)n2)CC1", "note": "(stereo partly drawn) [Example C-34, 2-(4-(5-cyano-4-((1R,3S)-3-hydroxycyclohexylamino)pyrimidin-2-ylamino)cyclohexyl)-N,N,2-trimethylpropanamide]", "pIC50": "> 6.70"}
    ]},
    {"target": "T1, JNK1", "assay": "JNK1 biochemical assays (one or more of: time resolved fluorescence, Z'-LYTE Cascade, radioactive)", "conditions": "one or more of the JNK1 biochemical assays; read-out: Act. Level (JNK1 IC50 activity level)", "values": [
      {"molecule": "CCO[C@H]1CC[C@H](Nc2ncc(C(N)=O)c(N[C@@H](C)C(C)C)n2)CC1", "note": "[Example 282, 2-((1r,4S)-4-ethoxycyclohexylamino)-4-((S)-3-methylbutan-2-ylamino)pyrimidine-5-carboxamide]", "pIC50": "> 6.70"},
      {"molecule": "CCC(C)(CC)Nc1nc(N[C@H]2CC[C@H](O)CC2)ncc1C(N)=O", "note": "[Example 262, 2-((1r,4r)-4-hydroxycyclohexylamino)-4-(3-methylpentan-3-ylamino)pyrimidine-5-carboxamide]", "pIC50": "> 6.70"},
      {"molecule": "NC(=O)c1cnc(NC23CCC(O)(CC2)C3)nc1NC1CCC1", "note": "[Example 447, 4-(cyclobutylamino)-2-(4-hydroxybicyclo[2.2.1]heptan-1-ylamino)pyrimidine-5-carboxamide]", "pIC50": "> 6.70"},
      {"molecule": "C[C@@H](Nc1nc(N[C@@H]2CCC[C@H](O)C2)ncc1C(N)=O)C1CC1", "note": "[Example 423, 4-((R)-1-cyclopropylethylamino)-2-((1R,3S)-3-hydroxycyclohexylamino)pyrimidine-5-carboxamide]", "pIC50": "> 6.70"},
      {"molecule": "CC1(C)CCC(Nc2nc(NC3CCC3)ncc2C(N)=O)CC1O", "note": "(stereo not shown) [Example 428, 2-(cyclobutylamino)-4-(3-hydroxy-4,4-dimethylcyclohexylamino)pyrimidine-5-carboxamide]", "pIC50": "> 6.70"},
      {"molecule": "CC1(Nc2ncc(C(N)=O)c(NC3CCC(C)(C)C(O)C3)n2)CC1", "note": "(stereo not shown) [Example 430, 4-(3-hydroxy-4,4-dimethylcyclohexylamino)-2-(1-methylcyclopropylamino)pyrimidine-5-carboxamide]", "pIC50": "> 6.70"},
      {"molecule": "CC(C)Nc1nc(NC2CCOCC2)ncc1C(N)=O", "note": "[Example 222, 4-(isopropylamino)-2-(tetrahydro-2H-pyran-4-ylamino)pyrimidine-5-carboxamide]", "pIC50": "6.10 to 6.70"},
      {"molecule": "CC(C)(Nc1nc(NC23CCC(O)(CC2)CC3)ncc1C(N)=O)C1CC1", "note": "[Example 479, 4-(2-cyclopropylpropan-2-ylamino)-2-(4-hydroxybicyclo[2.2.2]octan-1-ylamino)pyrimidine-5-carboxamide]", "pIC50": "> 6.70"},
      {"molecule": "NC(=O)c1cnc(N[C@H]2CC[C@H](OCC(F)(F)F)CC2)nc1NC12CC(C1)C2", "note": "[Example 419, 4-(bicyclo[1.1.1]pentan-1-ylamino)-2-((1r,4r)-4-(2,2,2-trifluoroethoxy)cyclohexylamino)pyrimidine-5-carboxamide]", "pIC50": "> 6.70"},
      {"molecule": "CC(C)C(C)(C)Nc1nc(N[C@H]2CC[C@H](O)CC2)ncc1C(N)=O", "note": "[Example 275, 4-(2,3-dimethylbutan-2-ylamino)-2-((1r,4r)-4-hydroxycyclohexylamino)pyrimidine-5-carboxamide]", "pIC50": "> 6.70"}
    ]},
    {"target": "T1, JNK1", "assay": "JNK1 biochemical assays (one or more of: time resolved fluorescence, Z'-LYTE Cascade, radioactive)", "conditions": "tested in one or more of the JNK1 biochemical assays; read-out: Act. Level (JNK1 biochemical assay IC50 activity level)", "values": [
      {"molecule": "CCO[C@H]1CC[C@H](Nc2ncc(C(N)=O)c(N[C@H]3CCC[C@@H]3O)n2)C1", "note": "[Example A-64, 2-((1S,3S)-3-ethoxycyclopentylamino)-4-((1S,2S)-2-hydroxycyclopentylamino)pyrimidine-5-carboxamide]", "pIC50": "6.10 to 6.70"},
      {"molecule": "NC(=O)c1cnc(NC2CCCCC2)nc1N[C@H]1CC[C@@H](C(N)=O)CC1", "note": "[Example A-146, 4-((1s,4s)-4-carbamoylcyclohexylamino)-2-(cyclohexylamino)pyrimidine-5-carboxamide]", "pIC50": "> 6.70"},
      {"molecule": "CC(C)Nc1nc(N[C@H]2CC[C@H](C(=O)N(C)C)CC2)ncc1C(N)=O", "note": "[Example A-10, 2-((1r,4r)-4-(dimethylcarbamoyl)cyclohexylamino)-4-(isopropylamino)pyrimidine-5-carboxamide]", "pIC50": "> 6.70"}
    ]}
  ]
}
